Experimental data: the supplement of paper PMC10307832

What was measured:
Test in all cases: relative viability (nuclei count vs DMSO), 5 days (fraction); higher = more cells survive
QS11 + Foretinib = compound: C1CC2=C(C1)C=C(C=C2)OC3=NC(=C4C(=N3)N(C=N4)CC5=CC=C(C=C5)C6=CC=CC=C6)N[C@@H](CC7=CC=CC=C7)CO [QS11] + COc1cc2c(Oc3ccc(NC(=O)C4(C(=O)Nc5ccc(F)cc5)CC4)cc3F)ccnc2cc1OCCCN1CCOCC1 [Foretinib] (partner 0.25 µM)
Method in brief: (§1)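 Five library-drug doses in √10 steps were combined with a fixed anchor-drug dose, or a single drug was given alone, by pin tool to lung cancer cell lines in 1536-well plates the day after seeding. Nuclei were stained and counted after 5 days. Relative viability is the nuclei count in treated wells over that in vehicle wells, taken as the median of duplicate plates.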

Darinaparsin + AZD7762 = compound: C[As](C)SC[C@H](NC(=O)CC[C@H](N)C(=O)O)C(=O)NCC(=O)O [Darinaparsin] + NC(=O)Nc1cc(-c2cccc(F)c2)sc1C(=O)N[C@H]1CCCNC1 [AZD7762] (partner 0.2 µM)
Method in brief: as §1

AZ628 + Foretinib = compound: CC1=C(C=C(C=C1)NC(=O)C2=CC(=CC=C2)C(C)(C)C#N)NC3=CC4=C(C=C3)N=CN(C4=O)C [AZ628] + COc1cc2c(Oc3ccc(NC(=O)C4(C(=O)Nc5ccc(F)cc5)CC4)cc3F)ccnc2cc1OCCCN1CCOCC1 [Foretinib] (partner 0.25 µM)
Method in brief: as §1

AZ628 + Luminespib = compound: CC1=C(C=C(C=C1)NC(=O)C2=CC(=CC=C2)C(C)(C)C#N)NC3=CC4=C(C=C3)N=CN(C4=O)C [AZ628] + CCNC(=O)c1noc(-c2cc(C(C)C)c(O)cc2O)c1-c1ccc(CN2CCOCC2)cc1 [Luminespib] (partner 0.01 µM)
Method in brief: as §1

Cell Line | relative viability (QS11 + Foretinib; first compound 0.08 µM) | relative viability (QS11 + Foretinib; first compound 0.253 µM) | relative viability (QS11 + Foretinib; first compound 0.8 µM) | relative viability (QS11 + Foretinib; first compound 2.53 µM) | relative viability (QS11 + Foretinib; first compound 8 µM) | relative viability (Darinaparsin + AZD7762; first compound 0.08 µM) | relative viability (Darinaparsin + AZD7762; first compound 0.8 µM) | relative viability (Darinaparsin + AZD7762; first compound 2.53 µM) | relative viability (Darinaparsin + AZD7762; first compound 8 µM) | relative viability (AZ628 + Foretinib; first compound 0.08 µM) | relative viability (AZ628 + Foretinib; first compound 0.253 µM) | relative viability (AZ628 + Foretinib; first compound 0.8 µM) | relative viability (AZ628 + Foretinib; first compound 2.53 µM) | relative viability (AZ628 + Foretinib; first compound 8 µM) | relative viability (AZ628 + Luminespib; first compound 0.08 µM) | relative viability (AZ628 + Luminespib; first compound 0.253 µM) | relative viability (AZ628 + Luminespib; first compound 0.8 µM) | relative viability (AZ628 + Luminespib; first compound 2.53 µM) | relative viability (AZ628 + Luminespib; first compound 8 µM)
NCI-H1755 | 0.962 | 0.841 | 0.566 | 0.732 | 0.683 | 0.595 | 0.428 | 0.735 | 0.475 | 0.905 | 0.929 | 0.858 | 0.965 | 0.867 | 0.326 | 0.446 | 0.443 | 0.421 | 0.278
NCI-H650 | 1 | 1.11 | 0.994 | 0.924 | 1.02 | 0.94 | 0.882 | 0.941 | 0.95 | 1.02 | 1.21 | 1.19 | 1.14 | 1.13 | 0.935 | 0.816 | 0.909 | 0.843 | 0.63
NCI-H1437 | 1.31 | 1.23 | 0.973 | 1.17 | 1.12 | 1.2 | 1.2 | 1.03 | 1.26 | 1.26 | 1.13 | 1.25 | 1.28 | 1.23 | 1.23 | 1.06 | 1.09 | 1.16 | 1.14
NCI-H460 | 1.07 | 0.939 | 0.731 | 1.05 | 0.626 | 0.806 | 0.675 | 0.534 | 0.585 | 0.978 | 0.996 | 0.974 | 1.02 | 0.54 | 0.0338 | 0.033 | 0.0403 | 0.0274 | 0.0264
HARA | 0.841 | 0.933 | – | 0.944 | 1.2 | 0.417 | – | 0.335 | 0.371 | 0.713 | 0.898 | 0.792 | 0.795 | 0.392 | 0.463 | 0.726 | 0.548 | 0.779 | 0.39
NCI-H2085 | 1.01 | 0.886 | 0.911 | 1.02 | 1 | 0.91 | 0.934 | 0.892 | 1.17 | 0.994 | 1.17 | 1.07 | 1.09 | 0.676 | 0.538 | 0.41 | 0.468 | 0.503 | 0.33
NCI-H1395 | 0.893 | 0.964 | 1.02 | 1 | 1.09 | 0.4 | 0.411 | 0.385 | 0.394 | 0.996 | 0.967 | 0.974 | 1 | 0.939 | 0.701 | 0.763 | 0.688 | 0.808 | 0.686
RERF-LC-KJ | 0.883 | 0.86 | 0.62 | 0.79 | 0.834 | 0.92 | 0.989 | 0.865 | 1.19 | 0.885 | 0.922 | 0.898 | 0.899 | 0.893 | 1.21 | 1.23 | 1.43 | 1.08 | 1.19
NCI-H2087 | 1.07 | 1.15 | – | 1.15 | 1.06 | 1.41 | 1.45 | 1.39 | 1.75 | 0.839 | 0.821 | 0.727 | 0.78 | 0.256 | 0.132 | 0.155 | 0.159 | 0.193 | 0.152
EMC-BAC-2 | 1.03 | 1.02 | 0.857 | 0.652 | 0.622 | 1.18 | 1.04 | 1.28 | 1.26 | 0.91 | 0.87 | 0.871 | 0.901 | 0.877 | 1.22 | 1.03 | 1.16 | 1.07 | 1.12
A-427 | 1.13 | 1.15 | – | 1.22 | 1.17 | 0.696 | 0.681 | 0.747 | 0.589 | 0.996 | 0.872 | 0.542 | 0.643 | 0.34 | 1.08 | 0.805 | 0.76 | 0.775 | 0.555
NCI-H727 | 1.2 | 0.888 | 0.829 | 1.06 | 0.869 | 0.556 | 0.599 | 0.598 | 0.581 | 0.628 | 0.455 | 0.383 | 0.319 | 0.322 | 0.343 | 0.337 | 0.228 | 0.277 | 0.203
NCI-H2170 | 1.02 | 0.987 | 0.77 | 1.06 | 1.06 | 0.946 | 0.916 | 0.852 | 1.11 | 0.992 | 1.07 | 1.03 | 1.07 | 0.913 | 0.802 | 0.725 | 0.789 | 0.752 | 0.731
PC-3 [JPC-3] | 0.972 | 1.07 | 0.991 | 1.03 | 0.982 | 0.972 | 0.807 | 0.668 | 0.85 | 1.01 | 1.07 | 1.05 | 1.03 | 0.92 | 0.628 | 0.67 | 0.866 | 0.675 | 0.71
SW 900 | 0.981 | 0.875 | 0.844 | 0.774 | 0.8 | 0.644 | – | 0.549 | 0.6 | 0.931 | 0.874 | 0.971 | 0.685 | 0.619 | 0.18 | 0.188 | 0.156 | 0.152 | 0.176
HCC-827 | 1.05 | 1.05 | 0.8 | 1.02 | 0.812 | 0.181 | 0.211 | 0.188 | 0.188 | 0.982 | 0.933 | 0.967 | 1.02 | 0.715 | 0.698 | 0.5 | 0.588 | 0.701 | 0.623
NCI-H1666 | 0.908 | 1.05 | 0.653 | 0.85 | 0.582 | 0.706 | 0.897 | 0.915 | 0.873 | 0.894 | 0.769 | 0.749 | 0.756 | 0.893 | 0.978 | 0.882 | 0.848 | 0.843 | 0.829
NCI-H322M | 1.06 | 1.04 | 1.06 | 1.09 | 1.44 | 0.585 | 0.42 | 0.488 | 0.518 | 1.05 | 0.985 | 0.952 | 1.02 | 0.829 | 0.924 | 0.815 | 0.935 | 0.79 | 0.549
NCI-H838 | 0.993 | 0.953 | 0.688 | 0.898 | 0.85 | 1.03 | 0.963 | 0.971 | 1.07 | 0.931 | 1 | 1.06 | 0.914 | 0.871 | 0.305 | 0.318 | 0.336 | 0.386 | 0.246
NCI-H596 | 0.979 | 0.743 | 0.924 | 0.841 | 0.97 | 1.23 | 1.13 | 0.98 | 1.25 | 0.867 | 1.05 | 0.913 | 0.905 | 0.991 | 0.931 | 1.11 | 1.02 | 0.984 | 0.829
NCI-H647 | 1.17 | 1.24 | 0.988 | 1.09 | 1.06 | 0.81 | 0.572 | 0.375 | 0.534 | 1.02 | 1.28 | 1.36 | 1.29 | 1.05 | 0.155 | 0.132 | 0.221 | 0.186 | 0.186
NCI-H441 | 1.01 | 1.19 | 0.97 | 0.775 | 0.746 | 1.2 | 1.08 | 0.815 | 1.13 | 0.94 | 0.962 | 0.896 | 0.901 | 0.846 | 0.33 | 0.342 | 0.345 | 0.469 | 0.241
